PubChem BioAssay AID248 (DTP/NCI, 2004)
Values joined by “and” are separate entries in the source; they are usually repeats but may differ in a detail not shown here. Identical values can stand only once. Inconclusive results and toxic doses are left out. Rule as the data show it: active = T/C of 150% or more; inactive = T/C below 125%.

Test system: L1210 leukemia ip in BDF1 mice, survival T/C
Experiment: NCI In Vivo Anticancer Drug Screen. Data for tumor model L1210 Leukemia (intraperitoneal) in B6D2F1 (BDF1) mice
Details: endpoint: mean survival time, higher = longer survival
Outline: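 Survival endpoint. Drug-treated group vs vehicle group, expressed as T divided by C. Tumor passaged by transplantation.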

[1] = dose: 50.0 mg/kg/injection, schedule: Q01DX009 (ip), vehicle: saline
[2] = dose: 100.0 mg/kg/injection, schedule: Q01DX009 (ip), vehicle: saline
[3] = dose: 200.0 mg/kg/injection, schedule: Q01DX009 (ip), vehicle: saline
[4] = dose: 100.0 mg/kg/injection, schedule: Q01DX001 (ip), vehicle: saline
[5] = dose: 200.0 mg/kg/injection, schedule: Q01DX001 (ip), vehicle: saline
[6] = dose: 100.0 mg/kg/injection, schedule: Q01DX001 (ip), vehicle: Klucel (hydroxypropylcellulose) (HPC)
[7] = dose: 200.0 mg/kg/injection, schedule: Q01DX001 (ip), vehicle: Klucel (hydroxypropylcellulose) (HPC)
[8] = dose: 400.0 mg/kg/injection, schedule: Q01DX001 (ip), vehicle: Klucel (hydroxypropylcellulose) (HPC)
[9] = dose: 100.0 mg/kg/injection, schedule: Q01DX009 (ip), vehicle: saline with Tween-80
[10] = dose: 200.0 mg/kg/injection, schedule: Q01DX009 (ip), vehicle: saline with Tween-80
[11] = dose: 100.0 mg/kg/injection, schedule: Q01DX009 (ip), vehicle: Klucel (hydroxypropylcellulose) (HPC)
[12] = dose: 200.0 mg/kg/injection, schedule: Q01DX009 (ip), vehicle: Klucel (hydroxypropylcellulose) (HPC)
[13] = dose: 400.0 mg/kg/injection, schedule: Q01DX009 (ip), vehicle: Klucel (hydroxypropylcellulose) (HPC)
[14] = dose: 100.0 mg/kg/injection, schedule: Q04DX003 (ip), vehicle: saline with Tween-80
[15] = dose: 200.0 mg/kg/injection, schedule: Q04DX003 (ip), vehicle: saline with Tween-80
[16] = dose: 400.0 mg/kg/injection, schedule: Q04DX003 (ip), vehicle: saline with Tween-80
[17] = dose: 50.0 mg/kg/injection, schedule: Q01DX009 (ip), vehicle: saline with Tween-80
[18] = dose: 6.25 mg/kg/injection, schedule: Q01DX009 (ip), vehicle: Klucel (hydroxypropylcellulose) (HPC)
[19] = dose: 12.5 mg/kg/injection, schedule: Q01DX009 (ip), vehicle: Klucel (hydroxypropylcellulose) (HPC)
[20] = dose: 25.0 mg/kg/injection, schedule: Q01DX009 (ip), vehicle: Klucel (hydroxypropylcellulose) (HPC)
[21] = dose: 50.0 mg/kg/injection, schedule: Q01DX009 (ip), vehicle: Klucel (hydroxypropylcellulose) (HPC)
[22] = dose: 100.0 mg/kg/injection, schedule: Q04DX002 (ip), vehicle: saline with Tween-80
[23] = dose: 200.0 mg/kg/injection, schedule: Q04DX002 (ip), vehicle: saline with Tween-80

Measured: T/C

O=C(NC(=S)c1ccc[nH]1)Nc1ccccc1
inactive: [1] 93 % of control | [2] 90 % of control | [3] 90 % of control

c1ccc(-c2nnc(N3CCCCC3)nc2-c2ccccc2)cc1
inactive: dose: 50.0 mg/kg/injection, schedule: Q01DX001 (ip), vehicle: saline 100 % of control | [4] 88 % of control | [5] 94 % of control

CSc1nc(Cl)cc(-c2ccccc2)n1
inactive: dose: 200.0 mg/kg/injection, schedule: Q01DX Z (ip), vehicle: methylcellulose (MC) 106 % of control

CC(=O)OCCCCOC(C)=O
inactive: [4] 105 % of control | [5] 109 % of control | dose: 400.0 mg/kg/injection, schedule: Q01DX001 (ip), vehicle: saline 107 % of control

CN1CN(c2ccccc2)C2(CCN(CCc3cc4ccccc4o3)CC2)C1=O
inactive: [6] 96 % of control | [7] 95 % of control | [8] 101 % of control

CCCCCCCN(CCCCCCC)CC(O)c1cc(-c2ccc(Cl)cc2)nc2c(C(F)(F)F)cccc12 (stereo not given)
inactive: [6] 104 % of control | [9] 102 % of control | [7] 96 % of control | [10] 100 % of control | [8] 100 % of control | dose: 400.0 mg/kg/injection, schedule: Q01DX009 (ip), vehicle: saline with Tween-80 100 % of control

O=C(Nc1cc(C(F)(F)F)ccc1Cl)n1cccc1
inactive: [11] 113 % of control | [12] 113 % of control | [13] 106 % of control

c1cc[c]([Sn]([c]2ccccc2)([CH]2CCCCC2)[CH]2CCCCC2)cc1
inactive: dose: 75.0 mg/kg/injection, schedule: Q04DX002 (ip), vehicle: gum acacia 96 % of control | dose: 150.0 mg/kg/injection, schedule: Q04DX002 (ip), vehicle: gum acacia 101 % of control | dose: 300.0 mg/kg/injection, schedule: Q04DX002 (ip), vehicle: gum acacia 96 % of control

CCN(CC)C(=O)Sc1ccc(SC(=O)N(CC)CC)cc1
inactive: dose: 12.5 mg/kg/injection, schedule: Q04DX002 (ip), vehicle: saline with Tween-80 90 % of control | dose: 25.0 mg/kg/injection, schedule: Q04DX002 (ip), vehicle: saline with Tween-80 97 % of control | dose: 50.0 mg/kg/injection, schedule: Q04DX002 (ip), vehicle: saline with Tween-80 93 % of control | [14] 107 % of control | [15] 102 % of control | [16] 97 % of control

Nc1ncccc1C(=O)O
inactive: dose: 62.5 mg/kg/injection, schedule: Q01DX010 (ip), vehicle: saline 96 % of control and 100 % of control | dose: 100.0 mg/kg/injection, schedule: Q01DX001 (ip), vehicle: carboxymethylcellulose (CMC) 101 % of control | dose: 125.0 mg/kg/injection, schedule: Q01DX010 (ip), vehicle: saline 93 % of control and 109 % of control | dose: 200.0 mg/kg/injection, schedule: Q01DX001 (ip), vehicle: carboxymethylcellulose (CMC) 98 % of control | dose: 250.0 mg/kg/injection, schedule: Q01DX010 (ip), vehicle: saline 102 % of control and 90 % of control | dose: 400.0 mg/kg/injection, schedule: Q01DX001 (ip), vehicle: carboxymethylcellulose (CMC) 95 % of control | dose: 500.0 mg/kg/injection, schedule: Q01DX010 (ip), vehicle: saline 100 % of control and 90 % of control

COC(=O)C1Cc2ccccc2/C1=N\O (stereo not given)
inactive: [17] 94 % of control | [9] 94 % of control | [10] 94 % of control

CC1=NC(C#N)=C(C#N)N=C(C)C1
inactive: [18] 107 % of control | [19] 98 % of control | [20] 119 % of control | [21] 107 % of control

O=C(c1ccccc1Cl)N(Cc1ccccc1)c1ccccc1
inactive: [11] 102 % of control | [12] 103 % of control | [13] 100 % of control

CC1(C)OC2COC(c3cc(C(N)=O)n[nH]3)C2O1 (stereo not given)
inactive: [14] 97 % of control | [15] 100 % of control | [16] 100 % of control

CC(C)([CH2][Sn]([CH2]C(C)(C)c1ccccc1)[CH2]C(C)(C)c1ccccc1)c1ccccc1.CC(C)([CH2][Sn]([CH2]C(C)(C)c1ccccc1)[CH2]C(C)(C)c1ccccc1)c1ccccc1
inactive: dose: 75.0 mg/kg/injection, schedule: Q01DX001 (ip), vehicle: other 101 % of control | dose: 150.0 mg/kg/injection, schedule: Q01DX001 (ip), vehicle: other 106 % of control | dose: 300.0 mg/kg/injection, schedule: Q01DX001 (ip), vehicle: other 94 % of control

CCC(C(=O)c1cccs1)C(O)(C(F)(F)F)C(F)(F)F (stereo not given)
inactive: [6] 102 % of control | [7] 97 % of control | [8] 94 % of control

Nc1nc2ncc(CNc3ccc(CC(=O)NC(CCC(=O)O)C(=O)O)cc3)nc2c(=O)[nH]1 (stereo not given)
inactive: dose: 75.0 mg/kg/injection, schedule: Q01DX001 (ip), vehicle: saline 103 % of control | dose: 150.0 mg/kg/injection, schedule: Q01DX001 (ip), vehicle: saline 103 % of control

NNC(=S)Nc1cccc2ccccc12
inactive: dose: 75.0 mg/kg/injection, schedule: Q01DX001 (ip), vehicle: carboxymethylcellulose (CMC) 93 % of control | dose: 150.0 mg/kg/injection, schedule: Q01DX001 (ip), vehicle: carboxymethylcellulose (CMC) 93 % of control

C1=C(N2CCOCC2)CCC(N2CCOCC2)=C1
inactive: [1] 108 % of control | [2] 95 % of control | dose: 100.0 mg/kg/injection, schedule: Q04DX003 (ip), vehicle: saline 98 % of control | [3] 95 % of control | dose: 200.0 mg/kg/injection, schedule: Q04DX003 (ip), vehicle: saline 95 % of control

CCOc1cc(C=Nc2cc(Br)c(OC)c(Br)c2)ccc1N(CCCl)CCCl
inactive: dose: 4.0 mg/kg/injection, schedule: Q01DX009 (ip), vehicle: carboxymethylcellulose (CMC) 106 % of control | dose: 7.0 mg/kg/injection, schedule: Q01DX009 (ip), vehicle: carboxymethylcellulose (CMC) 115 % of control | dose: 8.9 mg/kg/injection, schedule: Q01DX001 (ip), vehicle: carboxymethylcellulose (CMC) 122 % of control | dose: 11.0 mg/kg/injection, schedule: Q01DX009 (ip), vehicle: carboxymethylcellulose (CMC) 109 % of control | dose: 17.0 mg/kg/injection, schedule: Q01DX009 (ip), vehicle: carboxymethylcellulose (CMC) 123 % of control | dose: 133.0 mg/kg/injection, schedule: Q01DX001 (ip), vehicle: carboxymethylcellulose (CMC) 122 % of control

Cc1nc(-c2ccc(N=Cc3ccc(N(CCCOS(C)(=O)=O)CCCOS(C)(=O)=O)cc3C)cc2)c(C)s1
inactive: [9] 100 % of control | [10] 93 % of control

O=C(NCCCN1CCOCC1)C(Oc1ccccc1)Oc1ccccc1
inactive: [18] 91 % of control | [19] 98 % of control | [20] 100 % of control | [21] 89 % of control

CCC(c1ccccc1)c1nc2ccccc2c2ccccc12 (stereo not given)
inactive: [21] 97 % of control | [11] 97 % of control | [12] 94 % of control

CCOC12c3ccccc3N(S(C)(=O)=O)C(C)C1C2(Br)Br (stereo not given)
inactive: [11] 94 % of control | dose: 100.0 mg/kg/injection, schedule: Q04DX003 (ip), vehicle: Klucel (hydroxypropylcellulose) (HPC) 110 % of control | [12] 94 % of control | dose: 200.0 mg/kg/injection, schedule: Q04DX003 (ip), vehicle: Klucel (hydroxypropylcellulose) (HPC) 102 % of control | [13] 90 % of control | dose: 400.0 mg/kg/injection, schedule: Q04DX003 (ip), vehicle: Klucel (hydroxypropylcellulose) (HPC) 109 % of control

CS(=O)NOCCCCONS(C)=O (stereo not given)
inactive: [22] 96 % of control and 89 % of control | [23] 96 % of control and 100 % of control | dose: 400.0 mg/kg/injection, schedule: Q04DX002 (ip), vehicle: saline with Tween-80 86 % of control

O=C(O)CS(=O)(=O)CC(=O)O
inactive: [14] 98 % of control | [15] 93 % of control

Cc1ccc(C(C)C)cc1NC(=O)Nc1ccccc1F
inactive: [11] 91 % of control | [12] 86 % of control

COC1C=CC23c4cc5c(cc4C(O)OC2CN(C)C3C1)OCO5 (stereo not given)
inactive: [4] 106 % of control

[N-]=[N+]=NC1=CC(=O)C(c2ccccc2)=CC1=O
inactive: [22] 102 % of control | [23] 97 % of control

O=c1[nH]nc(-c2ccccn2)o1
inactive: [17] 97 % of control | [9] 90 % of control | [10] 97 % of control
